# From ChEMBL document CHEMBL4680176, “Identification of DOT1L inhibitors by structure-based virtual screening adapted from a nucleoside-focused library” (Eur J Med Chem, 2020)
# Calls of active or inactive are those of the source. The rule behind the calls is not given here.
# Key:
# [1] = biological target: T1, Protein arginine N-methyltransferase 7 (Homo sapiens, UniProt Q9NVM4); assay: Inhibition of recombinant human PRMT7 using GST-GAR as substrate by hotspot assay
# T1 sequence (Q9NVM4 whole entry): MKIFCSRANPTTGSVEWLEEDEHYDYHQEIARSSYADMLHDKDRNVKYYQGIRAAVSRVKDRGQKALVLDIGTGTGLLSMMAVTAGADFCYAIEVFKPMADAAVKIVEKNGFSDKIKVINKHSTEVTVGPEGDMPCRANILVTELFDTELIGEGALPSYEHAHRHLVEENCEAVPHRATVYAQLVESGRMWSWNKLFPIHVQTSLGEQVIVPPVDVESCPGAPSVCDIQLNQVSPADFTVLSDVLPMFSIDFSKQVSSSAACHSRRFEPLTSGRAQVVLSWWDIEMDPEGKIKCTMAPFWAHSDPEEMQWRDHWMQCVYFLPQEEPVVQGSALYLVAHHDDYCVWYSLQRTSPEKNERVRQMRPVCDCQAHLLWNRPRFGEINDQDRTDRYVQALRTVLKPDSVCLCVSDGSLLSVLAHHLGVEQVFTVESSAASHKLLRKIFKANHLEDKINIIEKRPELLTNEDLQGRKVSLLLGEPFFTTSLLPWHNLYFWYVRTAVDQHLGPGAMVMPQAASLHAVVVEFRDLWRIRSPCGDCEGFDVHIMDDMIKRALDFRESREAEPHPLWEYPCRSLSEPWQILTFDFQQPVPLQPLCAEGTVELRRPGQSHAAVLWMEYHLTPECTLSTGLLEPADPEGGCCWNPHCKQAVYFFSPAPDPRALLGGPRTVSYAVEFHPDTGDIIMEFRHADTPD
# Bone marrow cell [2] = assay: Antiproliferative activity against mouse bone marrow cell transformed with MLL-AF9 assessed as reduction in cell growth measured after 9 days by hemocytometry; type: functional, cell-based; conditions: 216 h
# [3] = biological target: T2, Histone-lysine N-methyltransferase EHMT2 (Homo sapiens, UniProt Q96KQ7); assay: Inhibition of recombinant human G9a using histone H3 (1 to 21) as substrate by hotspot assay
# T2 sequence (Q96KQ7 whole entry): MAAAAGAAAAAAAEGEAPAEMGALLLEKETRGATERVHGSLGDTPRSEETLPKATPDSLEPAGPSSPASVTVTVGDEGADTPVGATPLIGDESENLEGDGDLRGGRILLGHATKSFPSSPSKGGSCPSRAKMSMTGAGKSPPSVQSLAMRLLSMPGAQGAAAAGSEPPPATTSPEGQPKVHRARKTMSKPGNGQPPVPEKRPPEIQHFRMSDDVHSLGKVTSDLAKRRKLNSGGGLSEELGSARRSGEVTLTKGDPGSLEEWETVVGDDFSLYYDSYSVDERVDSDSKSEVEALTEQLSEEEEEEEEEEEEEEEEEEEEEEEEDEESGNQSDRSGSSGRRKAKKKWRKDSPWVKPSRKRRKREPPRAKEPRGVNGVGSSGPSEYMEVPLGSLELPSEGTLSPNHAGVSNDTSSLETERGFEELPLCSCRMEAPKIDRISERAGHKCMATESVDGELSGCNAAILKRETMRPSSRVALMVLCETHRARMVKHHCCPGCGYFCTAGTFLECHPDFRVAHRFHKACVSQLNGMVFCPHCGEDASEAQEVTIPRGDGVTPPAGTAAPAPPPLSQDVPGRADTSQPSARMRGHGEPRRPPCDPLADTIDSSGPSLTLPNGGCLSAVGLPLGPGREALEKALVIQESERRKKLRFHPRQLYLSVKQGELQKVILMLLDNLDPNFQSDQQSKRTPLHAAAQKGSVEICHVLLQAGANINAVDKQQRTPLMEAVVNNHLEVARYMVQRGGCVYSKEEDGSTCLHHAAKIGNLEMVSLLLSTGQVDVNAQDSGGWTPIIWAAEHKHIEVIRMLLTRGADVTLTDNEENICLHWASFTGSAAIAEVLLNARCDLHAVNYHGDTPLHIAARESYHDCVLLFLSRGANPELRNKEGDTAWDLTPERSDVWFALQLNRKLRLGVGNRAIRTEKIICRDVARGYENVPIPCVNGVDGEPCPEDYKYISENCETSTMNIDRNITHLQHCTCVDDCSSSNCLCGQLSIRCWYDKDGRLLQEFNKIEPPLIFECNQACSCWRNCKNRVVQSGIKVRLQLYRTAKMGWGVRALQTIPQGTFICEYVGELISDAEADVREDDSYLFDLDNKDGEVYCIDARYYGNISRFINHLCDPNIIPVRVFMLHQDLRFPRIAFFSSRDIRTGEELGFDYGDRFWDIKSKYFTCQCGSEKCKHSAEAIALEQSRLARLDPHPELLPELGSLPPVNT
# [4] = Aqueous solubility of compound; type: physicochemical
# Bone marrow cell [5] = assay: Antiproliferative activity against mouse bone marrow cell transformed with E2A-HLF assessed as reduction in cell growth at 1 to 30 uM measured after 15 days by hemocytometry; type: functional, cell-based; conditions: dose 1-30 µM, time 15.0 day
compound,measurement,setting,value
CC(C)(C)c1ccc(NC(=O)c2ncn(CC(=O)NCCn3ccc4c(N)ncnc43)n2)cc1,IC50,[1],Not Active
same,IC50,Bone marrow cell [2],4.2 µM
same,IC50,[3],Not Active
same,solubility,[4],687 µM
same,inhibition,Bone marrow cell [5],inactive
